# Measured values: patent publication US8592629B2, “Sulfonamide derivatives as Nav 1.7 inhibitors” (Pfizer Limited, priority 2010, dated 2013)
# Where a name gives a salt, the structure may show the parent alone.
# Molecular target: T1, Nav1.7 (or SCN9A) channel (Homo sapiens, UniProt Q15858)
# T1 construct: expressed in transfected cells
# Experiment: Nav1.7 (hSCN9A) block in HEK cells, PatchXpress 7000 automated electrophysiology, estimated IC50 (EIC50)
# Format: cell-based
# Conditions: PatchXpress assay; HEK cells stably transfected with hSCN9A, voltage-clamped at V1/2 of inactivation
# Protocol: The ability of the compounds of formula (I) to block the Nav1.7 (or SCN9A) channel were measured using the assay described below.
# Human Embryonic Kidney (HEK) cells were transfected with an hSCN9A construct using lipofectamine reagent (Invitrogen), using standard techniques. Cells stably expressing the hSCN9A constructs were identified by their resistance to G-418 (400 μg/ml). Clones were screened for expression using the whole-cell voltage-clamp technique.
# HEK cells stably transfected with hSCN9A were maintained in DMEM medium supplemented with 10% heat-inactivated fetal bovine serum and 400 μg/ml G-418 in an incubator at 37° C. with a humidified atmosphere of 10% CO2. For HTS, cells were harvested from flasks by trypsinization and replated in an appropriate multi-well plate (typically 96 or 384 wells/plate) such that confluence would be achieved within 24 hours of plating. For electrophysiological studies, cells were removed from the culture flask by brief trypsinization and re-plated at low density onto glass cover slips. Cells were typically used for electrophysiological experiments within 24 to 72 hours after plating.
# HEK cells stably transfected with hSCN9A were viewed under Hoffman contrast optics and placed in front of an array of flow pipes emitting either control or compound-containing extracellular solutions. All compounds were dissolved in dimethyl sulfoxide to make 10 mM stock solutions, which were then diluted into extracellular solution to attain the final concentrations desired. […] The voltage-dependence of inactivation was determined by applying a series of depolarizing prepulses (8 sec long in 10 mV increments) from a negative holding potential. The voltage was then immediately stepped to 0 mV to assess the magnitude of the sodium current. Currents elicited at 0 mV were plotted as a function of prepulse potential to allow estimation of the voltage at which 50% of the channels were inactivated (midpoint of inactivation or V1/2). Compounds were tested for their ability to inhibit hSCN9A sodium channels by activating the channel with a 20 msec voltage step to 0 mV following an 8 second conditioning prepulse to the empirically determined V1/2. Compound effect (% inhibition) was determined by difference in current amplitude before and after application of test compounds. For ease of comparison, “estimated IC-50” (EIC50) values were calculated from single point electrophysiology data by the following equation, (tested concentration, uM) X (100-% inhibition/% inhibition). Inhibition values <20% and >80% were excluded from the calculation.
# Electrophysiological assays were conducted with PatchXpress 7000 hardware and associated software (Molecular Devices Corp). All assay buffers and solutions were identical to those used in conventional whole-cell voltage clamp experiments described above. hSCN9A cells were grown as above to 50%-80% confluency and harvested by trypsinization. Trypsinized cells were washed and resuspended in extracellular buffer at a concentration of 1×10^6 cells/ml. The onboard liquid handling facility of the PatchXpress was used for dispensing cells and application of test compounds. Determination of the voltage midpoint of inactivation was as described for conventional whole-cell recordings. Cells were then voltage-clamped to the empirically determined V1/2 and current was activated by a 20 msec voltage step to 0 mV.
# Compounds of the Examples were tested in the assays described above and found to have the Nav1.7 EIC50 (μM) values specified in the table below. All data are derived from the PatchXpress assay unless explicitly stated otherwise.
# T1 sequence (Q15858 whole entry): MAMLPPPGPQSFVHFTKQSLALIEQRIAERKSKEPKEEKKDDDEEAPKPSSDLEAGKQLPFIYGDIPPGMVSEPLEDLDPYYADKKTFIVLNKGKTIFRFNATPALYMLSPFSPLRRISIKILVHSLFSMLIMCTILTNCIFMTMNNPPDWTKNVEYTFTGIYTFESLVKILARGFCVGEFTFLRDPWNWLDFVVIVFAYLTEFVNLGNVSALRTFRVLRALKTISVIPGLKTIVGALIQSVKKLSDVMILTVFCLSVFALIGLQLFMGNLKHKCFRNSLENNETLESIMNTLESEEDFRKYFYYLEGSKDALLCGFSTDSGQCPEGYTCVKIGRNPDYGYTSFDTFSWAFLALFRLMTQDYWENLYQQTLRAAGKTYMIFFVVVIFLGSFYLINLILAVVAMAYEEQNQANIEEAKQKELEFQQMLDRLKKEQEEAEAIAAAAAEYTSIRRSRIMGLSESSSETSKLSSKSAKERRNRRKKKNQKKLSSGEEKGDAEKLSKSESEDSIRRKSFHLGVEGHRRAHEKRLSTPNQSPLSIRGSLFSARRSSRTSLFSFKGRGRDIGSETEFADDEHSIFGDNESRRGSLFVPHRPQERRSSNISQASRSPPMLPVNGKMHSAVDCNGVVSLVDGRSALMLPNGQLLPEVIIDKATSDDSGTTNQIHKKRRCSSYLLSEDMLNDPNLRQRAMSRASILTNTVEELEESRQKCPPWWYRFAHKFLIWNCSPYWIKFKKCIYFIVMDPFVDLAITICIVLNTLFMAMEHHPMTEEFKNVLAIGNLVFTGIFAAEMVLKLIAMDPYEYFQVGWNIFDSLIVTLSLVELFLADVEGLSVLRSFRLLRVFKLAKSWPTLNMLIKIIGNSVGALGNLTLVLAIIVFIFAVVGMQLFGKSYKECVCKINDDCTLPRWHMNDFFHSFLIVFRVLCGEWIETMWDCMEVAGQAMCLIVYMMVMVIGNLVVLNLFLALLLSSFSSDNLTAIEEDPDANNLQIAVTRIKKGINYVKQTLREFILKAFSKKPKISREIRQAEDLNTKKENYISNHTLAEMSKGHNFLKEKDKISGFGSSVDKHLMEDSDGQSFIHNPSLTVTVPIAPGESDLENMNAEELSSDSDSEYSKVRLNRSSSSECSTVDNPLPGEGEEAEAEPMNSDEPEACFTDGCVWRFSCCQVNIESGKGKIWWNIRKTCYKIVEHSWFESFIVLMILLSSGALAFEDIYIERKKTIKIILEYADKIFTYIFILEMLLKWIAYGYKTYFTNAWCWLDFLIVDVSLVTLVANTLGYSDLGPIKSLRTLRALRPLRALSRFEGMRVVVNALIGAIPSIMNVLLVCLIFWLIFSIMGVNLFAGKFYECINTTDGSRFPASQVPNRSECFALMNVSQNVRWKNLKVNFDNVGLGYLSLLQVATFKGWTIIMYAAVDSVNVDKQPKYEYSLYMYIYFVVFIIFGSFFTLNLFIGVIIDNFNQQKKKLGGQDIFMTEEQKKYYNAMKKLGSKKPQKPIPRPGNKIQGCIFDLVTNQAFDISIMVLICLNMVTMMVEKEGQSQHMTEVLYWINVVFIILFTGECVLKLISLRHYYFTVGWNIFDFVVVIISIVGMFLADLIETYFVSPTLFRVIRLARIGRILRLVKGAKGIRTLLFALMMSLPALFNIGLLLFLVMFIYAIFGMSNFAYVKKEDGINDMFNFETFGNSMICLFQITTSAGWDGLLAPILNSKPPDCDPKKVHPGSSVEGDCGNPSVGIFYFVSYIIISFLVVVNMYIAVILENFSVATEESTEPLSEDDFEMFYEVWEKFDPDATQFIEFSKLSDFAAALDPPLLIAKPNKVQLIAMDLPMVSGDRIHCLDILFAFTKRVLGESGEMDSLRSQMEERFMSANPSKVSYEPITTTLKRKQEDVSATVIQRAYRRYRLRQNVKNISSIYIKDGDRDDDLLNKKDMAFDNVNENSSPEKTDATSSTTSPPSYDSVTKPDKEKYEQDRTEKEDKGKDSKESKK
row,SMILES,IC50 [nM]
1,"[2H]C([2H])([2H])C([2H])(Oc1ncc(Oc2cc(F)c(C(=O)NS(C)(=O)=O)cc2Cl)cc1Cl)C([2H])([2H])[2H] (single isomer, unassigned) [Example 42, 5-chloro-4-({5-chloro-6-[d7-propan-2-yloxy]pyridin-3-yl}oxy)-2-fluoro-N-(methylsulfonyl)benzamide]",31
2,"[2H]C(C)(C)Oc1ncc(Oc2cc(F)c(C(=O)NS(C)(=O)=O)cc2Cl)cc1Cl (single isomer, unassigned) [Example 46, 5-chloro-4-({5-chloro-6-[2-d1-propan-2-yloxy]pyridin-3-yl}oxy)-2-fluoro-N-(methylsulfonyl)benzamide]",110
3,"CC(C)COc1ncc(Oc2ccc(C(=O)NS(C)(=O)=O)cc2C#N)cc1Cl [Example 1, 4-[(5-Chloro-6-isobutoxypyridin-3-yl)oxy]-3-cyano-N-(methylsulfonyl)benzamide]",160
4,"CS(=O)(=O)NC(=O)c1cc(F)c(Oc2cnc(OCC3CC(F)(F)C3)c(Cl)c2)cc1F [Example 2, 4-({5-Chloro-6-[(3,3-difluorocyclobutyl)methoxy]pyridin-3-yl}oxy)-2,5-difluoro-N-(methylsulfonyl)benzamide]",91
5,"CC(C)Oc1ncc(Oc2cc(F)c(C(=O)NS(C)(=O)=O)cc2F)cc1Cl [Example 3, 4-[(5-Chloro-6-isopropoxypyridin-3-yl)oxy]-2,5-difluoro-N-(methylsulfonyl)benzamide]",41
6,"CS(=O)(=O)NC(=O)c1ccc(Oc2cnc(N3CCCCC3)nc2)c(Cl)c1 [Example 4, 3-Chloro-N-(methylsulfonyl)-4-[(2-piperidin-1-ylpyrimidin-5-yl)oxy]benzamide]",300
7,"CC(Oc1ncc(Oc2cc(F)c(C(=O)NS(C)(=O)=O)cc2F)cc1Cl)C(F)(F)F (stereo not drawn) [Example 12, 4-{[5-Chloro-6-(2,2,2-trifluoro-1-methylethoxy)pyridin-3-yl]oxy}-2,5-difluoro-N-(methylsulfonyl)benzamide]",120
8,"CC(C)COc1ncc(Oc2ccc(C(=O)NS(C)(=O)=O)cc2)cc1Cl [Example 14, 4-[(5-Chloro-6-isobutoxypyridin-3-yl)oxy]-N-(methylsulfonyl)benzamide]",140
9,"CS(=O)(=O)NC(=O)c1cc(F)c(Oc2cnc(OC3CCC3)c(Cl)c2)cc1F [Example 16, 4-(5-Chloro-6-cyclobutoxypyridin-3-yloxy)-2,5-difluoro-N-(methylsulfonyl)benzamide]",130
10,"CC(C)COc1ncc(Oc2cc(F)c(C(=O)NS(C)(=O)=O)cc2F)cc1Cl [Example 23, 4-[(5-chloro-6-isobutoxypyridin-3-yl)oxy]-2,5-difluoro-N-(methylsulfonyl)benzamide]",39
11,"CS(=O)(=O)NC(=O)c1cc(F)c(Oc2cnc(OC3CCOCC3)c(Cl)c2)cc1F [Example 24, 4-{[5-chloro-6-(tetrahydro-2H-pyran-4-yloxy)pyridin-3-yl]oxy}-2,5-difluoro-N-(methylsulfonyl)benzamide]",780
12,"COc1ncc(Oc2cc(F)c(C(=O)NS(C)(=O)=O)cc2F)cc1Cl [Example 25, 4-[(5-chloro-6-methoxypyridin-3-yl)oxy]-2,5-difluoro-N-(methylsulfonyl)benzamide]",9800
13,"CS(=O)(=O)NC(=O)c1cc(F)c(Oc2cnc(C(F)(F)F)nc2)cc1F [Example 26, 2,5-difluoro-N-(methylsulfonyl)-4-{[2-(trifluoromethyl)pyrimidin-5-yl]oxy}benzamide]",> 10000
14,"CS(=O)(=O)NC(=O)c1cc(F)c(Oc2cnc(OCC(F)(F)F)c(Cl)c2)cc1F [Example 27, 4-{[5-chloro-6-(2,2,2-trifluoroethoxy)pyridin-3-yl]oxy}-2,5-difluoro-N-(methylsulfonyl)benzamide]",220
15,"CC1(COc2ncc(Oc3cc(F)c(C(=O)NS(C)(=O)=O)cc3F)cc2Cl)CC1 [Example 28, 4-({5-chloro-6-[(1-methylcyclopropyl)methoxy]pyridin-3-yl}oxy)-2,5-difluoro-N-(methylsulfonyl)benzamide]",33
16,"CN1CCC(Oc2ncc(Oc3cc(F)c(C(=O)NS(C)(=O)=O)cc3Cl)cc2Cl)CC1 [Example 30, 5-chloro-4-({5-chloro-6-[(1-methylpiperidin-4-yl)oxy]pyridin-3-yl}oxy)-2-fluoro-N-(methylsulfonyl)benzamide]",7600
17,"CC(C)Oc1ncc(Oc2c(F)cc(C(=O)NS(C)(=O)=O)cc2F)cc1Cl [Example 32, 4-[(5-chloro-6-isopropoxypyridin-3-yl)oxy]-3,5-difluoro-N-(methylsulfonyl)benzamide]",340
18,"CC(C)Oc1ncc(Oc2ccc(C(=O)NS(C)(=O)=O)cc2F)cc1Cl [Example 33, 4-[(5-chloro-6-isopropoxypyridin-3-yl)oxy]-3-fluoro-N-(methylsulfonyl)benzamide]",700
19,"CC(C)(C)Oc1ncc(Oc2cc(F)c(C(=O)NS(C)(=O)=O)cc2F)cc1Cl [Example 34, 4-[(6-tert-butoxy-5-chloropyridin-3-yl)oxy]-2,5-difluoro-N-(methylsulfonyl)benzamide]",33

# The remaining lines, values ahead:
row,IC50 [nM],SMILES
1,290,"CC(C)(F)c1ncc(Oc2cc(F)c(C(=O)NS(C)(=O)=O)cc2Cl)cc1Cl [Example 7, 5-Chloro-4-{[5-chloro-6-(1-fluoro-1-methylethyl)pyridin-3-yl]oxy}-2-fluoro-N-(methylsulfonyl)benzamide]"
2,240,"CC(C)Oc1ncc(Oc2cc(F)c(C(=O)NS(C)(=O)=O)cc2Cl)cc1C#N [Example 8, 5-Chloro-4-[(5-cyano-6-isopropoxypyridin-3-yl)oxy]-2-fluoro-N-(methylsulfonyl)benzamide]"
3,> 1000,"CS(=O)(=O)NC(=O)c1ccc(Oc2cnc(C(F)(F)F)c(Cl)c2)cc1 [Example 9, 4-{[5-Chloro-6-(trifluoromethyl)pyridin-3-yl]oxy}-N-(methylsulfonyl)benzamide]"
4,900,"CS(=O)(=O)NC(=O)c1cc(Cl)c(Oc2cnc(OC3COC3)c(Cl)c2)cc1F [Example 10, 5-Chloro-4-{[5-chloro-6-(oxetan-3-yloxy)pyridin-3-yl]oxy}-2-fluoro-N-(methylsulfonyl)benzamide]"
5,50,"CS(=O)(=O)NC(=O)c1cc(Cl)c(Oc2cnc(OCCC(F)(F)F)c(Cl)c2)cc1F [Example 13, 5-Chloro-4-{[5-chloro-6-(3,3,3-trifluoropropoxy)pyridin-3-yl]oxy}-2-fluoro-N-(methylsulfonyl)benzamide]"
6,4600,"COc1ncc(Oc2cc(F)c(C(=O)NS(=O)(=O)C3CC3)cc2F)cc1Cl [Example 15, 4-(5-Chloro-6-methoxypyridin-3-yloxy)-N-(cyclopropylsulfonyl)-2,5-difluorobenzamide diethylamine salt]"
7,970,"CCC(C)S(=O)(=O)NC(=O)c1cc(F)c(Oc2cnc(OC)c(Cl)c2)cc1F (stereo not drawn) [Example 18, N-(sec-butylsulfonyl)-4-[(5-chloro-6-methoxypyridin-3-yl)oxy]-2,5-difluorobenzamide]"
8,> 3000,"CC(C)n1ncc2cc(Oc3cc(F)c(C(=O)NS(C)(=O)=O)cc3Cl)ccc21 [Example 20, 5-Chloro-2-fluoro-4-[(1-isopropyl-1H-indazol-5-yl)oxy]-N-(methylsulfonyl)benzamide]"
9,30,"CS(=O)(=O)NC(=O)c1cc(Cl)c(Oc2cnc(C3CC3)c(Cl)c2)cc1F [Example 21, 5-chloro-4-[(5-chloro-6-cyclopropylpyridin-3-yl)oxy]-2-fluoro-N-(methanesulfonyl)benzamide]"
10,19,"CS(=O)(=O)NC(=O)c1cc(Cl)c(Oc2cnc(OCC(F)(F)C(F)F)c(Cl)c2)cc1F [Example 22, 5-chloro-4-{[5-chloro-6-(2,2,3,3-tetrafluoropropoxy)pyridin-3-yl]oxy}-2-fluoro-N-(methanesulfonyl)benzamide]"
11,2300,"CC(C)Oc1ncc(Oc2cc(F)c(C(=O)NS(C)(=O)=O)c(F)c2F)cc1Cl [Example 29, 4-[(5-chloro-6-isopropoxypyridin-3-yl)oxy]-2,3,6-trifluoro-N-(methylsulfonyl)benzamide]"
